Experimental data reported in PubChem BioAssay AID1996.
In brackets after ≈: the same amount, converted by molar mass.

Details: buffer; pH 7.4; 200.0 µM

Compound	solubility kinetic
O=C(Cc1c[nH]c2ccccc12)N1CCN(c2ccccc2)CC1	3.9 µg/mL (≈ 12.2 µM)
O=c1[nH]c(S)c(/C=C2\C=Nc3ccccc32)s1	9.6 µg/mL (≈ 36.9 µM)
C=CCn1c(C)nnc1SCC(=O)NC1CCCCC1	> 44.2 µg/mL
CCC1(CC)Cc2ccccc2-c2nc(NCCCO)[nH]c(=O)c21	42 µg/mL (≈ 128 µM)
CCOc1ccc(NC(=S)N2CCC(NC(=O)c3ccccc3)CC2)cc1	4.2 µg/mL (≈ 11 µM)
NC(=O)c1c(NC(=O)c2ccc(F)cc2)sc2c1CCC2	0.7 µg/mL (≈ 2.3 µM)
Cc1cc(C(=O)Nc2sccc2C#N)c2ccccc2n1	20.8 µg/mL (≈ 70.9 µM)
CCC(=Nc1cccc(C(F)(F)F)c1)c1c(O)n(C)c(=O)n(C)c1=O	6.4 µg/mL (≈ 18 µM)
COc1ccc(C(=O)NC(CCSC)C(=O)NC2CC2)cc1 (stereo not drawn)	> 48.4 µg/mL
CCc1cccc(C)c1NC(=O)COC(=O)CSCc1ccccc1	13.7 µg/mL (≈ 38.3 µM)
COc1cscc1C(N)=O	19.4 µg/mL (≈ 123 µM)
CCOC(=O)/C=C1\SCC(=O)N1CC(=O)Nc1cc(S(=O)(=O)N(C)C)ccc1C	26.2 µg/mL (≈ 59.3 µM)
Cc1ccccc1NC(=O)Cc1nnc(N)s1	> 37.2 µg/mL
CCCC(C)C(=O)Nc1ccc(S(=O)(=O)N2CCCC2)cc1 (stereo not drawn)	> 48.7 µg/mL
O=C(c1cc(-c2ccc(O)cc2)on1)N1CCCC1	> 38.7 µg/mL
CCOC(=O)C1CCN(c2ncnc3cc(OC)c(OC)cc23)CC1	51.3 µg/mL (≈ 149 µM)
C=CCNC(=O)C1CCC(C(=O)NCC=C)CC1 (stereo not drawn)	> 37.6 µg/mL
COc1ccc(CCNC(=O)c2ccc(=O)[nH]c2)cc1OC	> 45.3 µg/mL
COc1ccccc1NC(=O)CN1CCCCCC1	24.3 µg/mL (≈ 92.6 µM)
N#CCc1ccc(OC(=O)Nc2ccccc2)cc1	36.4 µg/mL (≈ 144 µM)
Cc1cc(SCc2cccc([N+](=O)[O-])c2)nc(=O)[nH]1	35.3 µg/mL (≈ 127 µM)
Cc1ccc(C(=O)Nc2ccc(S(=O)(=O)N3CCCC3)cc2)cc1	1.6 µg/mL (≈ 4.65 µM)
COc1ccccc1N1CCN(C(=O)c2c(C)noc2C)CC1	> 47.3 µg/mL
O=C(c1ccccc1)c1ccc(OCC(=O)N2CCOCC2)cc1	> 48.8 µg/mL

Compound	solubility kinetic
O=c1[nH]c(=O)n(C2CCCCCC2)c(O)c1C=NCc1cccnc1	8.2 µg/mL (≈ 23.9 µM)
Clc1ccccc1-c1nc(-c2ccncc2)no1	7 µg/mL (≈ 27.2 µM)
Cc1cccc(C)c1NC(=O)CN(C)C(=O)C1CCCCC1	> 45.4 µg/mL
Cc1cc(C(=O)OCC(=O)N(C)c2ccccc2)c2ccccc2n1	> 50.2 µg/mL
OC(C[n+]1ccccc1)c1ccccc1.[Br-] (stereo not drawn)	> 42 µg/mL
O=S(=O)(NCC1CC1)c1cc(Cl)cc(Cl)c1	10.2 µg/mL (≈ 36.4 µM)
CC(CCc1ccccc1)NC(=O)c1ccccc1Cl (stereo not drawn)	41.6 µg/mL (≈ 145 µM)
O=C(Nc1ccccc1F)C1CCCC1	23.4 µg/mL (≈ 113 µM)
COc1cccc(C(=O)O/N=C(\N)c2ccccn2)c1	> 40.7 µg/mL
O=C1Nc2ccccc2C1Cc1ccccc1 (stereo not drawn)	29 µg/mL (≈ 130 µM)
NS(=O)(=O)c1cnccc1NCCc1ccccc1	40.3 µg/mL (≈ 145 µM)
Cc1ccc(-c2c[n+](CC(=O)Nc3ccc(C)cc3C)c3n2CCC3)cc1.[Cl-]	> 59.4 µg/mL
N/C(CC(=O)Nc1ccc(F)cc1F)=N\OC(=O)c1cccs1	16.3 µg/mL (≈ 48 µM)
CCCCC1=NN(C(=O)c2ccncc2)C(O)(C(F)(F)F)C1 (stereo not drawn)	> 47.3 µg/mL
Cc1cc(C(=O)Nc2ccc(F)cc2)c2ccccc2n1	< 0.3 µg/mL
CS(=O)(=NS(=O)(=O)c1ccc(Cl)cc1)c1ccccc1 (stereo not drawn)	> 49.5 µg/mL
O=C(COC(=O)c1ccc(N2CCCC2=O)cc1)c1ccccc1	3.7 µg/mL (≈ 11.4 µM)
Cc1cccc(OCC(=O)NCc2cc(C)nc3ccccc23)c1	5 µg/mL (≈ 15.6 µM)
Cc1ccc(CNC(=O)N2CCN(c3ccc(C)cc3)CC2)cc1	4.1 µg/mL (≈ 12.7 µM)
CC(C)CC(=O)NC(=S)Nc1ccc(CN2CCOCC2)cc1	> 50.3 µg/mL
Cc1ccc(NC(=O)N2CCN(c3ncccc3C(F)(F)F)CC2)cc1	1.5 µg/mL (≈ 4.12 µM)
Cn1c(=O)c2c(nc(Cl)n2CCOc2ccccc2)n(C)c1=O	6.7 µg/mL (≈ 20 µM)
Cc1cc(NC(=O)CSc2nc3cc(C)c(C)cc3cc2C)no1	< 0.2 µg/mL
CC(=O)c1cccc(OCC(=O)NC2CCCCCC2)c1	> 43.4 µg/mL
